Calls of active or inactive are those of the source. The calls are words filed in the database; no cut-off is given here.
How the values were obtained:
[1] = Toxicity in C57BL/6 mouse assessed as effect on colon at 300 to 600 mg/kg, po administered for 7 days and measured on day 14; type: organism-based; conditions: in vivo, 168 h
[2] = system: Mus musculus; assay: Anti-inflammatory activity against DSS-induced ulcerative colitis C57BL/6J mouse model assessed as reduction in diarrhea at 10 mg/kg, po administered for 7 days and measured daily; type: functional, organism-based
[3] = molecular target: T1, Exportin-1 (Homo sapiens, UniProt O14980); assay: Binding affinity to recombinant His-tagged CRM1 (unknown origin) by SPR analysis
[4] = system: Mus musculus; assay: Anti-inflammatory activity against DSS-induced ulcerative colitis C57BL/6J mouse model assessed as reduction in IL-1beta production at 10 mg/kg, po administered for 7 days and measured on day 7 by ELISA; type: functional, organism-based
[5] = system: Mus musculus; assay: Anti-inflammatory activity against DSS-induced ulcerative colitis C57BL/6J mouse model assessed as restoration of damaged colon mucosal layer at 10 mg/kg, po administered for 7 days and measured on day 7 by ELISA; type: functional, organism-based
[6] = Toxicity in C57BL/6 mouse assessed as effect on spleen at 300 to 600 mg/kg, po administered for 7 days and measured on day 14; type: organism-based; conditions: in vivo, 168 h
[7] = system: Mus musculus; assay: Anti-inflammatory activity against DSS-induced ulcerative colitis C57BL/6J mouse model assessed as reduction in impairment of immune response genes at 30 mg/kg, po administered for 7 days and measured on day 7 by proteomic analysis; type: functional, organism-based
[8] = system: Mus musculus; assay: Anti-inflammatory activity against DSS-induced ulcerative colitis C57BL/6J mouse model assessed as reduction in colon swelling at 3 and 30 mg/kg, po administered for 7 days and measured on day 7 by […] and eosin staining based microscopic analysis; type: functional, organism-based
[9] = system: Mus musculus; assay: Anti-inflammatory activity against DSS-induced ulcerative colitis C57BL/6J mouse model assessed as reduction in colon shortening at 3 and 30 mg/kg, po administered for 7 days and measured daily; type: functional, organism-based
[10] = Stability of compound in artificial intestinal juice assessed as half life; type: ADME
[11] = Stability of compound in artificial gastric juice assessed as half life; type: ADME
[12] = system: Mus musculus; assay: Anti-inflammatory activity against DSS-induced ulcerative colitis C57BL/6J mouse model assessed as reduction in colon ulceration at 10 mg/kg, po administered for 7 days and measured on day 7; type: functional, organism-based
[13] = system: Mus musculus; assay: In vivo inhibition of NFkappaB in C57BL/6J mouse DSS-induced ulcerative colitis model assessed as reduction in NQO1 expression at 10 and 30 mg/kg, po administered for 7 days and measured on day 7 by Western blot analysis; type: functional, organism-based
[14] = molecular target: Voltage-gated inwardly rectifying potassium channel KCNH2 (Homo sapiens, UniProt Q12809); assay: Inhibition of human ERG expressed in human HEK293 cells by whole cell patch clamp assay; type: cell-based
[15] = system: Mus musculus; assay: Anti-inflammatory activity against DSS-induced ulcerative colitis C57BL/6J mouse model assessed as reduction in body weight loss at 10 mg/kg, po administered for 7 days and measured daily; type: functional, organism-based
[16] = Acute toxicity in C57BL/6 mouse assessed as weight loss at 300 to 600 mg/kg, po administered for 7 days and measured on day 7; type: organism-based; conditions: in vivo, 168 h
[17] = system: Mus musculus; assay: Anti-inflammatory activity against DSS-induced ulcerative colitis C57BL/6J mouse model assessed as reduction in IL-23 production at 10 mg/kg, po administered for 7 days and measured on day 7 by ELISA; type: functional, organism-based
[18] = system: Mus musculus; assay: In vivo inhibition of NFkappaB in C57BL/6J mouse DSS-induced ulcerative colitis model assessed as increase in Nrf2 expression at 10 and 30 mg/kg, po administered for 7 days and measured on day 7 by Western blot analysis; type: functional, organism-based
[19] = system: Mus musculus; assay: Anti-inflammatory activity against DSS-induced ulcerative colitis C57BL/6J mouse model assessed as reduction in impairment of inflammatory response genes at 30 mg/kg, po administered for 7 days and measured on day 7 by proteomic analysis; type: functional, organism-based
[20] = system: Mus musculus; assay: In vivo inhibition of NFkappaB in C57BL/6J mouse DSS-induced ulcerative colitis model assessed as downregulation of MRP8 expression at 10 and 30 mg/kg, po administered for 7 days and measured on day 7 by Western blot analysis; type: functional, organism-based
[21] = system: Mus musculus; assay: Anti-inflammatory activity against DSS-induced ulcerative colitis C57BL/6J mouse model assessed as reduction in impairment of wound healing genes at 30 mg/kg, po administered for 7 days and measured on day 7 by proteomic analysis; type: functional, organism-based
[22] = system: Mus musculus; assay: Anti-inflammatory activity against DSS-induced ulcerative colitis C57BL/6J mouse model assessed as reduction in diarrhea at 3 and 30 mg/kg, po administered for 7 days and measured daily; type: functional, organism-based
[23] = system: Mus musculus; assay: In vivo inhibition of NFkappaB in C57BL/6J mouse DSS-induced ulcerative colitis model assessed as restoration of occludin expression at 10 and 30 mg/kg, po administered for 7 days and measured on day 7 by Western blot analysis; type: functional, organism-based
[24] = system: Mus musculus; assay: Anti-inflammatory activity against DSS-induced ulcerative colitis C57BL/6J mouse model assessed as reduction in IL-6 production at 10 mg/kg, po administered for 7 days and measured on day 7 by ELISA; type: functional, organism-based
[25] = system: Mus musculus; assay: Anti-inflammatory activity against DSS-induced ulcerative colitis C57BL/6J mouse model assessed as re-epithelialization of colon at 3 and 30 mg/kg, po administered for 7 days and measured on day 7 by […] and eosin staining based microscopic analysis; type: functional, organism-based
[26] = system: Mus musculus; assay: Anti-inflammatory activity against DSS-induced ulcerative colitis C57BL/6J mouse model assessed as reduction in colon ulceration at 3 and 30 mg/kg, po administered for 7 days and measured on day 7 by […] and eosin staining based microscopic analysis; type: functional, organism-based
[27] = system: HCT-15; assay: Antiproliferative activity against CRM1 siRNA […] human HCT15 cells assessed as reduction in cell viability incubated for 24 hrs; type: functional, cell-based; conditions: HCT-15, 24 h
[28] = system: Mus musculus; assay: Anti-inflammatory activity against DSS-induced ulcerative colitis C57BL/6J mouse model assessed as reduction in impairment of NF-kappaB signalling genes at 30 mg/kg, po administered for 7 days and measured on day 7 by proteomic analysis; type: functional, organism-based
[29] = Cytotoxicity activity against human SNK6 cells assessed as GSH:GSSG ratio at 1 uM incubated for 48 hrs by GSH and GSSG assay kit method; type: cell-based
[30] = Acute toxicity in C57BL/6 mouse assessed as sickness indication at 300 to 600 mg/kg, po administered for 7 days and measured on day 7; type: organism-based; conditions: in vivo, 168 h
[31] = molecular target: T1, Exportin-1; assay: Reversible inhibition of CRM1 in human 293T cells assessed as increase in translocation of NES-GFP to […] at 4 uM incubated for 2 hrs by confocal laser scanning microscopy; type: cell-based
[32] = system: Mus musculus; assay: Anti-inflammatory activity against DSS-induced ulcerative colitis C57BL/6J mouse model assessed as reduction in colon swelling at 10 mg/kg, po administered for 7 days and measured on day 7; type: functional, organism-based
[33] = system: Mus musculus; assay: Anti-inflammatory activity against DSS-induced ulcerative colitis C57BL/6J mouse model assessed as reduction in body weight loss at 3 and 30 mg/kg, po administered for 7 days and measured daily; type: functional, organism-based
[34] = system: Mus musculus; assay: In vivo inhibition of NFkappaB in C57BL/6J mouse DSS-induced ulcerative colitis model assessed as increase in accumulation of IkBalpha in nucleus at 400 nM, po by confocal microscopy; type: functional, organism-based
[35] = system: Mus musculus; assay: Anti-inflammatory activity against DSS-induced ulcerative colitis C57BL/6J mouse model assessed as preservation of colon mucosal architecture at 3 and 30 mg/kg, po administered for 7 days and measured on day 7 by […] and eosin staining based microscopic analysis; type: functional, organism-based
[36] = system: Mus musculus; assay: Anti-inflammatory activity against DSS-induced ulcerative colitis C57BL/6J mouse model assessed as reduction in COX-2 production at 10 mg/kg, po administered for 7 days and measured on day 7 by ELISA; type: functional, organism-based
[37] = molecular target: Kelch-like ECH-associated protein 1 (Homo sapiens) (UniProt Q14145); assay: Binding affinity to recombinant His-tagged Keap1 (unknown origin) by SPR analysis
[38] = system: Mus musculus; assay: In vivo inhibition of NFkappaB in C57BL/6J mouse DSS-induced ulcerative colitis model assessed as downregulation of MRP14 expression at 10 and 30 mg/kg, po administered for 7 days and measured on day 7 by Western blot analysis; type: functional, organism-based
[39] = system: Mus musculus; assay: In vivo inhibition of NFkappaB in C57BL/6J mouse DSS-induced ulcerative colitis model assessed as increase in accumulation of NRF2 in nucleus at 400 nM, po by confocal microscopy; type: functional, organism-based
[40] = system: Mus musculus; assay: Anti-inflammatory activity against DSS-induced ulcerative colitis C57BL/6J mouse model assessed as reduction in colon inflammation at 3 and 30 mg/kg, po administered for 7 days and measured on day 7 by […] and eosin staining based microscopic analysis; type: functional, organism-based
[41] = system: Mus musculus; assay: Anti-inflammatory activity against DSS-induced ulcerative colitis C57BL/6J mouse model assessed as reduction in TNFalpha production at 10 mg/kg, po administered for 7 days and measured on day 7 by ELISA; type: functional, organism-based
[42] = system: Mus musculus; assay: In vivo inhibition of NFkappaB in C57BL/6J mouse DSS-induced ulcerative colitis model assessed as reduction in NFkappaB p65 expression at 10 and 30 mg/kg, po administered for 7 days and measured on day 7 by Western blot analysis; type: functional, organism-based
[43] = system: Mus musculus; assay: Anti-inflammatory activity against DSS-induced ulcerative colitis C57BL/6J mouse model assessed as reduction in impairment of host defense genes at 30 mg/kg, po administered for 7 days and measured on day 7 by proteomic analysis; type: functional, organism-based
[44] = system: Mus musculus; assay: Anti-inflammatory activity against DSS-induced ulcerative colitis C57BL/6J mouse model assessed as reduction in impairment of T-cell receptor signalling genes at 30 mg/kg, po administered for 7 days and measured on day 7 by proteomic analysis; type: functional, organism-based
[45] = system: Mus musculus; assay: In vivo inhibition of NFkappaB in C57BL/6J mouse DSS-induced ulcerative colitis model assessed as increase in HO1 expression at 10 and 30 mg/kg, po administered for 7 days and measured on day 7 by Western blot analysis; type: functional, organism-based
[46] = Permeability in human Caco2 cells at 10 uM incubated for 4 hrs by LC-MS/MS analysis; type: ADME, cell-based; conditions: caco-2, 4 h
[47] = species: Homo sapiens; assay: Binding affinity to recombinant His-tagged IkBalpha (unknown origin) by SPR analysis
[48] = system: Mus musculus; assay: Anti-inflammatory activity against DSS-induced ulcerative colitis C57BL/6J mouse model assessed as reduction in impairment of cell-cell adhesion genes at 30 mg/kg, po administered for 7 days and measured on day 7 by proteomic analysis; type: functional, organism-based
[49] = system: Mus musculus; assay: Anti-inflammatory activity against DSS-induced ulcerative colitis C57BL/6J mouse model assessed as restoration of colon length at 10 mg/kg, po administered for 7 days and measured on day 7; type: functional, organism-based
[50] = system: Mus musculus; assay: Anti-inflammatory activity against DSS-induced ulcerative colitis C57BL/6J mouse model assessed as reduction in impairment of epithelial barrier genes at 30 mg/kg, po administered for 7 days and measured on day 7 by proteomic analysis; type: functional, organism-based
[51] = system: Mus musculus; assay: Anti-inflammatory activity against DSS-induced ulcerative colitis C57BL/6J mouse model assessed as reduction in colitis orally administered for 7 days and measured on day 7 by […] and eosin staining based microscopic analysis; type: functional, organism-based
[52] = Acute toxicity in C57BL/6 mouse assessed as lethargy at 300 to 600 mg/kg, po administered for 7 days and measured on day 7; type: organism-based; conditions: in vivo, 168 h
[53] = system: Mus musculus; assay: Anti-inflammatory activity against DSS-induced ulcerative colitis C57BL/6J mouse model assessed as reduction in colon inflammation at 10 mg/kg, po administered for 7 days and measured on day 7; type: functional, organism-based
[54] = molecular target: T1, Exportin-1; assay: Inhibition of nuclear CRM1 (unknown origin) by cell based assay

T1 sequence (O14980 whole entry): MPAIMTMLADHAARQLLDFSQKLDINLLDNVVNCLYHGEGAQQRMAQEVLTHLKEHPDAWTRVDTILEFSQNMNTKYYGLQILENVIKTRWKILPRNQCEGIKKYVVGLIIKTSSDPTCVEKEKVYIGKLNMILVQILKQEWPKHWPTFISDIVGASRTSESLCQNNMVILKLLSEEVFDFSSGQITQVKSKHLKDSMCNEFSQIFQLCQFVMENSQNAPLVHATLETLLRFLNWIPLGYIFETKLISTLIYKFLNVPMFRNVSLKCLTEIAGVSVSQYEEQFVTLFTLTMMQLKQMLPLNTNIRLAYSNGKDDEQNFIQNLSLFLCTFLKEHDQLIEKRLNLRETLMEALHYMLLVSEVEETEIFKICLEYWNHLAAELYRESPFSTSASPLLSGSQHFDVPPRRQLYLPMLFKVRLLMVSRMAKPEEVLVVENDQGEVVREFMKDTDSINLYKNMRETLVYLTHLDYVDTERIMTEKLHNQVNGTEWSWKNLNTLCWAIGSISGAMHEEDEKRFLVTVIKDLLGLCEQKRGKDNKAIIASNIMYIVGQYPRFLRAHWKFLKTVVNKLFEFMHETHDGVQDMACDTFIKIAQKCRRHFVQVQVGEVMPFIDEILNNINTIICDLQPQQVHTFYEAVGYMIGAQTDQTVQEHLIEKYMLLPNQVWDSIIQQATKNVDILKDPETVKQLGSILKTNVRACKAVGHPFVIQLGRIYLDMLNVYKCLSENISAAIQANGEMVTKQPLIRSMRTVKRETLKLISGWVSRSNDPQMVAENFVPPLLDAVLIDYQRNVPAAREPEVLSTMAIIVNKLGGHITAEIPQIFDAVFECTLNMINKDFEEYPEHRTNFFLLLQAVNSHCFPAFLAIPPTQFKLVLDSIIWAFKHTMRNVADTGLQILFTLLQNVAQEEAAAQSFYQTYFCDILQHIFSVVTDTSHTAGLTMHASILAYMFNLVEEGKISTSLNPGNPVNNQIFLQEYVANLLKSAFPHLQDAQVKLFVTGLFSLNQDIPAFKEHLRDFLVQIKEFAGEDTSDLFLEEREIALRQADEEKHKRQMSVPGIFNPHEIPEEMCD
Voltage-gated inwardly rectifying potassium channel KCNH2, sequence (Q12809 whole entry): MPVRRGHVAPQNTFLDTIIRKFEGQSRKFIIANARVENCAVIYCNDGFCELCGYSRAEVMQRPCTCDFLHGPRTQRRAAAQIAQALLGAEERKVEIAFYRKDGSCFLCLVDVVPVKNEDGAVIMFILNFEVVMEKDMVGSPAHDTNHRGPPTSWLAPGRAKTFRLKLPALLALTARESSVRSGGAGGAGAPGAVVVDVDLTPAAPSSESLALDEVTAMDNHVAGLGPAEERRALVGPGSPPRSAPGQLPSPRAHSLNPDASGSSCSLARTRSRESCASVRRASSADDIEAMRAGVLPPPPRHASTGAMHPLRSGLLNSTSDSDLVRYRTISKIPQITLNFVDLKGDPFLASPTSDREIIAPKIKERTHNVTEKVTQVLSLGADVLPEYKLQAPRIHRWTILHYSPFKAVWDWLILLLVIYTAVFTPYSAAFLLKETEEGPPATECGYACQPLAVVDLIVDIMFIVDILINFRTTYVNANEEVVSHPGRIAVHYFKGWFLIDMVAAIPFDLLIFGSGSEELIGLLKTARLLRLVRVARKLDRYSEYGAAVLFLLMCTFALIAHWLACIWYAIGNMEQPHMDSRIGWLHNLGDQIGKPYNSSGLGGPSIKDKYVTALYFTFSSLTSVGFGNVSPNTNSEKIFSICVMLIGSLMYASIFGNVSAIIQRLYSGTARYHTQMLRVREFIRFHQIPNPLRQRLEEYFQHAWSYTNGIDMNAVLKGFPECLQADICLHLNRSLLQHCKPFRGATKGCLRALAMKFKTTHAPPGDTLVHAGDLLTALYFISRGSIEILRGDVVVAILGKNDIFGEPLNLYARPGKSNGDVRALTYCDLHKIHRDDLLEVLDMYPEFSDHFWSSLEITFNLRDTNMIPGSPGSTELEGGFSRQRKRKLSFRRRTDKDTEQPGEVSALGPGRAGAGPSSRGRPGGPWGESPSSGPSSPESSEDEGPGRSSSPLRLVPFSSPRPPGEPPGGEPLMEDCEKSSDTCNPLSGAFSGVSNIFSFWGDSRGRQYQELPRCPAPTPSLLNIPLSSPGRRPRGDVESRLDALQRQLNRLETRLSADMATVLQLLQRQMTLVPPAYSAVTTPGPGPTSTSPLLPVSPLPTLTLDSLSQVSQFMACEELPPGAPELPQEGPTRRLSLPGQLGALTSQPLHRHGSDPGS
Kelch-like ECH-associated protein 1 (Homo sapiens), sequence (Q14145 whole entry): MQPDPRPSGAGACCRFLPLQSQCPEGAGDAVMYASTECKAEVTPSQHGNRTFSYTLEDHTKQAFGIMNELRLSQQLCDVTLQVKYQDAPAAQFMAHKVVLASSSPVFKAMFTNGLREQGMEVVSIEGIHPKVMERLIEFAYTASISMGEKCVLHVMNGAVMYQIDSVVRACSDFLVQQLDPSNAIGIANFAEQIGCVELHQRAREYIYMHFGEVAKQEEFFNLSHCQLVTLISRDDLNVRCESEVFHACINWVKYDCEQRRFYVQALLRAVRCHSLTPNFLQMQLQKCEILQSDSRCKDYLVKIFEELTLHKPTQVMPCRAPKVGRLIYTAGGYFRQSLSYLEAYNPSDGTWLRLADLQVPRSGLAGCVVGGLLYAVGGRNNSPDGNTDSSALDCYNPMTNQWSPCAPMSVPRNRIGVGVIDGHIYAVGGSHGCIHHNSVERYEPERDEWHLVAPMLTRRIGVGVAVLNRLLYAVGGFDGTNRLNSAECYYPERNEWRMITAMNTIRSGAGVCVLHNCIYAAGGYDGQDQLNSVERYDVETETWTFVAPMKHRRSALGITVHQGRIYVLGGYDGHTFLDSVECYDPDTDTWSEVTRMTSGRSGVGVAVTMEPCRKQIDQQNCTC

Compound: [O-][S@@+](/C=C/CCN=C=S)c1cc(C(F)(F)F)cc(C(F)(F)F)c1
- Activity [1]: Non-Toxic
- Activity [2]: Active
- Kd [3]: 0.0269 µM
- Activity [4]: Active
- Activity [5]: Active
- Activity [6]: Non-Toxic
- Activity [7]: Active
- Activity [8]: Active
- Activity [9]: Active
- half-life [10]: 8 h
- half-life [11]: 24 h
- Activity [12]: Active
- inhibition [13]: Active
- IC50 [14]: > 30 µM
- Activity [15]: Active
- Activity [16]: Non-Toxic
- Activity [17]: Active
- inhibition [18]: Active
- Activity [19]: Active
- inhibition [20]: Active
- Activity [21]: Active
- Activity [22]: Active
- inhibition [23]: Active
- Activity [24]: Active
- Activity [25]: Active
- Activity [26]: Active
- IC50 [27]: 14.7 µM
- Activity [28]: Active
- Activity [29]: Non-Toxic
- Activity [30]: Non-Toxic
- inhibition [31]: 100%
- Activity [32]: Active
- Activity [33]: Active
- inhibition [34]: Active
- Activity [35]: Active
- Activity [36]: Active
- Activity [37]: inactive
- inhibition [38]: Active
- inhibition [39]: Active
- Activity [40]: Active
- Activity [41]: Active
- inhibition [42]: Active
- Activity [43]: Active
- Activity [44]: Active
- inhibition [45]: Active
- permeability [46]: Permeable
- Activity [47]: inactive
- Activity [48]: Active
- Activity [49]: Active
- Activity [50]: Active
- Activity [51]: Dose-dependent effect
- Activity [52]: Non-Toxic
- Activity [53]: Active

Compound: [O-][S+](/C=C/CCN=C=S)c1ccccc1 (centres undefined)
- IC50 [54]: 1.5 µM

Compound: Nc1ccc(O)c(C(=O)O)c1
- Activity [8]: inactive
- Activity [25]: inactive
- Activity [26]: inactive
- Activity [35]: inactive
- Activity [40]: inactive
